Test results published in patent publication US4228162A (priority 1979, dated 1980).
In brackets after ≈: the same amount, converted by molar mass. Read-outs that look alike come from different tables or passages of the source.

Tests used:
[1] = Arrhenius prediction of aspirin degradation and shelf life; assay type: physicochemical; settings: 1.00 M aspirin in dimethyl isosorbide
Procedure: The rate constants determined at various temperatures were used to predict the aspirin degradation at room (25° C.) and refrigeration (5° C.) temperatures using the Arrhenius equation:
log k=log A-Ea /2.303RT (3)
where k is the rate constant at temperature T,A, a constant, R, the gas constant, and Ea, the activation energy of the reaction. A plot of log k versus 1/T should yield a straight line with the slope equal to -Ea /2.303R. For the same reaction, Ea is a constant. From the plot, the rate constants at 25° and 5° can also be calculated. These constants can then be used for the prediction of the shelf life (time for 10% degradation) of the aspirin formulations at room and refrigeration temperatures.
From these values, the shelf-life (time for 10% degradation) of formulation A were predicted to be 230 days at 25° C., and 62.5 months at 5° C.

[2] = Solubility of aspirin in propylene glycol, polyethylene glycol-400 and dimethyl isosorbide; assay type: physicochemical; settings: organic solvent or mixture
Procedure: The bottle was constantly shaken at room temperature for 24 hours. The solution was then filtered for analysis. The determination of aspirin contents in the solubility samples was carried out using a fluorometric technique, in which the aspirin was completely hydrolyzed into salicylic acid, and the fluorescence of salicylic acid was then measured. The concentration of salicylic acid in the samples was determined based on a fluorescence calibration curve of known concentrations of salicylic acid in the range of 5×10^-7 M to 5×10^-6 M. The concentration of salicylic acid so determined was then converted to the concentration of aspirin. The solubility of aspirin in various solvents is expressed in mg/ml. The samples were treated as follows: […] After 30 minutes, when the hydrolysis was complete, 0.5 ml of a 1 N HCl was added to the flask to neutralize the excess sodium hydroxide. The solution was then diluted with a pH 7 phosphate buffer to 25 ml. For fluorescence measurement, 1, 2, 3, and 4 μl of the diluted solution were transferred into different fluorescence cuvettes containing 2 ml of pH 7 buffer. The fluorescence measured from these solutions was then used to determine the aspirin content in the solvents.

[3] = assay type: physicochemical; settings: dimethyl isosorbide versus propylene glycol and polyethylene glycol-400
Description: Ideally, an anhydrous composition is used to prevent hydrolysis.

[4] = cited from earlier work
[5] = Hydrolysis (stability) studies of aspirin formulations in dimethyl isosorbide; assay type: physicochemical
Procedure: No attempt of drying of the drug or the solvent was made prior to the experiment. 25 ml of each of the six formulations were placed in a screw capped bottle which was then kept in a temperature controlled water bath set at a designated temperature. Samples of each of the formulations were pipetted out at selected time intervals, and were immediately analyzed for salicylic acid content. The analysis of salicylic acid was carried out using the fluorometric method previously described. The samples were diluted 1000 times in a volumetric flask, a few μl's of the diluted samples were then transferred into a fluorescence cuvette containing 2 ml of pH 7 buffer for the fluorescence measurement. The hydrolysis studies were carried out at 40, 45, 50, 60 and 70° C. and at room temperature.
The rate constant of aspirin hydrolysis was determined according to the following equation: […]
where Co is the initial concentration of aspirin, C, the concentration of aspirin at time t, and k, the rate constant. For practical purposes, the above equation may be converted to […]

gastrointestinal tract = settings: cited from earlier work
[6] = cited from earlier work; remark: listed apart in the source
[7] = Procedure: The samples were prepared using USP grade aspirin, which was dried at 110° before use. […] Spectrum b was taken after the sample (containing 10% water) was stored at 70° C. for 96 hours.

## CC(=O)Oc1ccccc1C(=O)O [Aspirin, acetylsalicylic acid]
[1]; 5° C.
  Time for 10% Degradation: 62.5 mos.
[1]; 25° C.
  Time for 10% Degradation: 230 days
[2]; dimethyl isosorbide
  solubility at 24 h: 280 mg/mL (≈ 1550 mM)
[2]; in polyethylene glycol-400, room temperature, 24 hours
  solubility at 24 h: 254 mg/mL (≈ 1410 mM)
[2]; in propylene glycol, room temperature, 24 hours
  solubility at 24 h: 160 mg/mL (≈ 888 mM)
[3]
  aspirin stability compared between solvents: more stable in dimethyl isosorbide than in the other solvents
[4]; 5° C., 0.36 M aspirin in polyethylene glycol-400
  Time for 10% Degradation: 2.90 mos.
[4]; 5° C., 0.36 M aspirin in propylene glycol
  Time for 10% Degradation: 55.8 mos.
[4]; 25° C., 0.36 M aspirin in polyethylene glycol-400
  Time for 10% Degradation: 18.8 days
[4]; 25° C., 0.36 M aspirin in propylene glycol
  Time for 10% Degradation: 151.2 days
[5]
  cause of aspirin degradation (nmr): hydrolysis is the only cause for aspirin degradation in dimethyl isosorbide
[5]; 50° C., FIG. 3
  kinetic order of aspirin hydrolysis: follows second order kinetics
Gastrointestinal tract; aspirin ingestion, users and patients with gastrointestinal lesions
  gastrointestinal bleeding: severe gastrointestinal bleeding
Gastrointestinal tract; orally in a liquid form or intravenously
  occult bleeding: produces no occult bleeding
[6]; apparently anhydrous polyhydric alcohols
  mode of decomposition in polyhydric alcohols (nmr): occurs by transesterification of the acid with the polyhydric alcohol as well as by hydrolysis due to the presence of water
[6]; aqueous, Edward
  hydrolysis kinetics: follows first order kinetics and is subject to acid and base catalysis
[6]; polyethylene glycol-400, prolonged storage, Jun et al
  trans-esterification: undergoes trans-esterification with polyethylene glycol-400 to form salicylic acid and acetylated polyethylene glycol
[7]; 1 M aspirin in dimethyl isosorbide with 10% (v/v) water, 70° C., 96 hours
  aspirin degradation by nmr: partially hydrolyzed into salicylic acid and acetic acid
[7]; 1 M aspirin in dimethyl isosorbide, no water, heated at 70° for 24 hours
  nmr spectral change: no detectable change was found in the nmr spectrum
